# Assay results from patent US20070219213A1, “Use of Adrenergic N-Phenylpiperazine Antagonists, Pahrmaceutical Compositions Containning Them, and Methods of Preparing Them” (priority 2004, published 2007).
# Entries after “also recorded” stand apart in the source; their conditions may differ.
# Columns and labels:
# [1] = molecular target: T1, α1A (Oryctolagus cuniculus, UniProt O02824); experiment: Binding study in rabbit liver
# T1 construct: from tissue
# T1 sequence (O02824 1-466): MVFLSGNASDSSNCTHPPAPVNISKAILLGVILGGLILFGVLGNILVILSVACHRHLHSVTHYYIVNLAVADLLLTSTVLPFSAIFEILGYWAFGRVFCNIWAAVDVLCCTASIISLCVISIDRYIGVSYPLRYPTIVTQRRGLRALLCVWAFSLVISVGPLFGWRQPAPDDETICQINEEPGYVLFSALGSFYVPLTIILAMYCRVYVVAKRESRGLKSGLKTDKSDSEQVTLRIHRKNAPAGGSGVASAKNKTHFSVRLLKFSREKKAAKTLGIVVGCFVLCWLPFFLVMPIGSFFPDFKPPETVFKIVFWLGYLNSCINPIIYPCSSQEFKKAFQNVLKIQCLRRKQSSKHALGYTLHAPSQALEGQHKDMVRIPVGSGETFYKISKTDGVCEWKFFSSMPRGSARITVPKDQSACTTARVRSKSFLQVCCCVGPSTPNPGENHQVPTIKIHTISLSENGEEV
# [2] = molecular target: T2, H1 receptors (Cavia porcellus, UniProt P31389); experiment: Cobaio (guinea pig) trachea contraction induced by histamine; type: cell-based; settings: histamine 100 microM, compound 3 nM-30 microM
# T2 construct: from tissue; host or cells: guinea pig trachea strips
# Protocol: These strips were adapted in glass containers of 1.0 mL containing nutritious solution and continuous aeration with carbogenic mixture. The containers are maintained in a bath (Ugo Basile 4050) at the constant temperature of 37±0.50° C., mimicking thus physiologic terms in vitro. The trachea strips were connected to isometric force transducers (Ugo Basile 7011-4), submitted to a tension of 1 g and rested for 1 hour, changing the solution in 15 minute intervals, to obtain the balance to this tension.
# [3] = molecular target: T3, alpha 1A subtype (Rattus norvegicus, UniProt P43140); experiment: [3H]prazosin binding assay in rat salivary gland; settings: for selectivity index (I.S. alpha 1B/alpha 1A): alpha 1A versus alpha 1B subtype
# T3 sequence (P43140 1-466): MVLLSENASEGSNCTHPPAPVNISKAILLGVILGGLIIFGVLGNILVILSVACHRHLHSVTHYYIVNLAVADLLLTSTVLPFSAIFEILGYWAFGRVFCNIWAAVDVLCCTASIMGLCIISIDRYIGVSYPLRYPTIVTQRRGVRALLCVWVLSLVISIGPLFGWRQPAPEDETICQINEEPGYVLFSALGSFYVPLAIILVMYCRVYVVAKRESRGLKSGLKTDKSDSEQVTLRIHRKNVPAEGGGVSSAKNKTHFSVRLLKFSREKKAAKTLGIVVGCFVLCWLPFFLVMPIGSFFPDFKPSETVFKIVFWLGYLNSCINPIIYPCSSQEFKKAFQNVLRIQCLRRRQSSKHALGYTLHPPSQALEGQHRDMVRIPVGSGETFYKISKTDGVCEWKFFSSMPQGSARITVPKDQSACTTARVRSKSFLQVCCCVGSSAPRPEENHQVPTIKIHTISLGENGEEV
# [4] = test system: alpha 1A and alpha 1B adrenoceptors (rabbit aorta, α1A > α1B); experiment: Vasoconstriction assay in rabbit aorta induced by phenylephrine; type: cell-based; settings: for pKB (apparent antagonist potency): Schild equation, 3-300 nM
# Protocol: Vasoconstriction Assay in Rabbit Aorta Induced by Phenylephrine
# Aorta rings withdrawn from young male rabbits (1500-1700 g) were tensionated to 2 g (20 mN) and kept in Krebs solution, containing 10 mM Hepes, for 30 minutes, under continuous aeration. During this period, eventual tension adjustments were performed until stabilization in 2 g, always with renewal of Krebs solution. Then, vasoconstrictions were induced by 60 mM KCl solution, in each ring, to verify the viability of the organ on the day of the experiment. The preparation was submitted to contraction with phenylephrine (5×10^−5 M) and, then the rings were washed to reach the basal line (0% of vasoconstriction). The procedure was repeated until obtainment of a constant curve. Then, a curve, using increasing concentrations of phenylephrine (5×10^−9-5×10^−4 M), was performed for each ring, as a positive control. The segments were washed to reach the basal line (0% of vasoconstriction) and incubated with the test compounds, individually, for 30 minutes. A second phenylephrine curve was performed and the obtained data compared to the first control curve. The results were analyzed by one-way ANOVA software from Microcal Origin 4.1. The aorta rings were used once for each compound.
# Determination of the LASSBio 772 Antagonist Potency (pKB) on the Vasoconstriction of Rabbit or Rat Thoracic Aorta.
# cr is the ratio between phenylephrine concentrations in the presence and absence of antagonist; and
# B is the antagonist's concentration.
# [5] = molecular target: T4, beta 2 adrenergic receptors (Cavia porcellus, UniProt Q8K4Z4); experiment: Salbutamol relaxation of cobaio trachea pre-contracted with carbacol; type: cell-based, guinea pig; settings: salbutamol 10^−10-3.3×10^−5 M, strips pre-contracted with carbacol 10 microM, n=4
# T4 construct: from tissue; host or cells: guinea pig trachea strips pre-contracted with carbachol
# Source text: Selectivity Assay for Protein G-Coupled, Beta-Adrenergic, Muscarinic Cholinergic and Histaminergic Bioreceptors
# Determination of the Inhibitory Potency (IC50) of LASSBio 772 on Vasoconstriction of the Cobaio (Guinea Pig) Trachea
# Cobaios albinos from both sexes, weighing between 400 and 600 g were used in this experiment. The animals were sacrificed by cervical displacement and posterior bleed. Then, their tracheas were removed, kept in 5 microM indometacin added Krebs-Henseleit physiologic solution and oxygenated with carbogenic mixture (95% O2 and 5% CO2), proceeding the removal of the connective and adhered adipose tissue. From these tracheas were obtained segments with 4-6 rings, that are sectioned in the opposite side of the smooth musculature, originating strips used in the contractions assay (ARAKIDA et al., J. Pharmacol. Exper. Therap., 287: 633-639, 1998). […]
# After the period, the organ is treated with agonists that will induce contractions. […] The tissue viability was evaluated by contraction induction with histamine 100 microM or carbacol 10 microM. […]
# In another experiment the compound was evaluated for its capability to inhibit the relaxation produced by salbutamol (10^−10-3.3×10^−5 M), beta 2 adrenergic agonist, in strips of cobaio trachea pre-contracted with carbacol (10 microM).
# T4 sequence (Q8K4Z4 whole entry): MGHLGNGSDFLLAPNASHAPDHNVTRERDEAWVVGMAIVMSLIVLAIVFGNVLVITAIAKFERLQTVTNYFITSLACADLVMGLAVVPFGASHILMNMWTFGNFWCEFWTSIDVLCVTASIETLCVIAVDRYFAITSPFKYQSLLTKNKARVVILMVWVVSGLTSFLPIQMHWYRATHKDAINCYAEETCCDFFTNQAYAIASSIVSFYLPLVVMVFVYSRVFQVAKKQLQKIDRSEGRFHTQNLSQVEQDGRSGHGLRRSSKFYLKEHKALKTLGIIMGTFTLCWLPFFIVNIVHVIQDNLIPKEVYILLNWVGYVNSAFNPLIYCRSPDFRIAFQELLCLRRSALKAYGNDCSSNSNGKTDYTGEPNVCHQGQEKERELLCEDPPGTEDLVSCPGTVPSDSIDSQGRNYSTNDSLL
# T2 sequence (P31389 whole entry): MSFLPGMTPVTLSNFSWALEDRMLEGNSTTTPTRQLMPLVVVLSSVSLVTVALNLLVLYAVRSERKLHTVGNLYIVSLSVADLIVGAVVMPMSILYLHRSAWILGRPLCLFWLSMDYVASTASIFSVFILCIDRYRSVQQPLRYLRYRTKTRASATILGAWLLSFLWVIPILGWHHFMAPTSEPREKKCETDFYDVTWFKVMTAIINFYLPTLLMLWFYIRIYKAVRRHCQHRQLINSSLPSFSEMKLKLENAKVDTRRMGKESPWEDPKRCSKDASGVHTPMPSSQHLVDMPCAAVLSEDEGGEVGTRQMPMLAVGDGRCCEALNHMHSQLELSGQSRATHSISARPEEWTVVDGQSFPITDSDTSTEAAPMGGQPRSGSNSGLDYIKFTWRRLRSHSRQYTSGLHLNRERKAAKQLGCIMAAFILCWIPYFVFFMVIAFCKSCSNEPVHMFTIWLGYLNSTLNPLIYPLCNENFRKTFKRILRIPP
smiles,measurement,setting,value
"COc1ccccc1N1CCN(CCc2ccc3c(c2)OCO3)CC1 [LASSBio 772, 1-(2-1,3-Benzodioxol-5-yl-ethyl)-4-(2-methoxy-phenyl)-piperazine]",IC50,[1],4.9 nM
same,IC50,[2],309 nM
same,IC50,[3],0.26 nM
same,"selectivity indexes of alpha 1A/alpha 1D versus alpha 1B subtype and beta 2, H1 and cholinergic muscarinic receptors",[3],at least a thousand times
same,selectivity index (I.S. alpha 1B/alpha 1A),[3],≥ 1700
same,selectivity index (I.S. alpha 1B/alpha 1A),[3]; listed as LASSBio-772,1730
same,Ki,"[3]; rat salivary gland, Cheng Prussof",0.14 nM
same,antagonist activity on vasoconstriction,"[4]; 30 microM compound, 5×10^−4 M phenylephrine",significant antagonist activity
same,Kb,"[4]; rabbit aorta, phenylephrine",~14.1 nM
same,pKB (apparent antagonist potency),"[4]; rabbit aorta, phenylephrine",7.85
same,pKB (apparent antagonist potency),"[4]; rabbit aorta, phenylephrine, listed as LASSBio-772",around 7.85
same,inhibition of the relaxation produced by salbutamol,[5],not able to inhibit significantly the relaxing effect of salbutamol; also recorded: did not present any activity
